Laboratory results published in ChEMBL document CHEMBL3244021, “Structure and biological activity of (-)-[3H]dihydroalprenolol, a radioligand for studies of beta-adrenergic receptors” (J Med Chem, 1977).
pKd: −log10 of the molar value.

What was measured:
[1] = Displacement of (-)-[3H]dihydroalprenolol from beta adrenergic receptor in frog erythrocyte membrane after 10 mins by liquid scintillation counting analysis; assay type: cell membranes, Anura
[2] = Antagonist activity at beta adrenergic receptor in frog erythrocyte membrane assessed as inhibition of (-)-isoproterenol-stimulated adenylate cyclase activity measured as [32P]-cAMP level; assay type: cell membranes, Anura
[3] = Binding affinity to beta adrenergic receptor in frog erythrocyte membrane after 10 mins by liquid scintillation counting analysis; assay type: cell membranes, Anura
[4] = Stability of the compound; assay type: physicochemical

Work on C=CCc1ccccc1OCC(O)CNC(C)C (configuration not stated) yielded a pKd [1] of 8.60 and a pKd [2] of 8.40.

CCCc1ccccc1OCC(O)CNC(C)C (single isomer, unassigned; (-)) gave a pKd [1] of 8.60 and a pKd [2] of 8.40.

In the case of [3H]C([3H])([3H])C([3H])([3H])Cc1ccccc1OCC(O)CNC(C)C (single isomer, unassigned; (-)), the pKd [3] was 8.52, the pKd [2] was 8.40 and the Stability [4] was “Stable”.
